4 molecules from patent US20040210047A1, “Methallyl sucroses and their epoxy derivatives” (priority 2003, published 2004) can be followed below.

Data set [1] has as its system Salmonella Typhimurium TA-100. In words: Modified Maron-Ames test, strain TA-100. Particulars: for dilution at which a mutagenic response was observed: dilution in DMSO. On the procedure: […] The assays were performed according to the modified methods of Maron and Ames (Maron D. R. and Ames, B. N. Mutation Research, 1980, Vol. 113, 173-215) using two strains of Salmonella Typhimurium TA-98 and TA-100, with and without metabolic activation of the substrate. The male rat microsomal homogenate S-9 was used to effect metabolic activation of the substrate. TA-98 and TA-100 were cultured in Oxoid Nutrient Broth No.2 at 37° C. for 16 hours using a gyratory shaker (200-250 rpm).
(§1) Compounds were assayed after the bacteria tested positive for the viability-related criteria above. Two mL top agar was placed in sterile culture tubes and kept at ˜40° C. in a water bath. Samples (100 μL) were placed in each tube (3 tubes per sample) and 100 μL of either strain TA-98 or TA-100 was added. When required, the S-9 homogenate (500 μL) was then added. The tubes were mixed and poured into minimal glucose agar plates. The plates were left at room temperature until the top agar solidified. Then, they were inverted and incubated at 37° C. for 48 hours. After incubation, revertant colonies were counted. Samples that presented greater than 2 times the number of revertant colonies were considered mutagenic. (See FIGS. 9(a) through (f)).

Data set [2] relates to Salmonella Typhimurium TA-98. Kind of data set: Modified Maron-Ames test, strain TA-98. Particulars: for cytotoxicity: strain TA-98, with microsomal enzyme S-9 activation, no effect on the background lawn; for mutagenicity (revertant colonies): strain TA-98, with or without metabolic activation S-9. On the procedure:
Serial dilutions (100 fold) were made with DMSO to obtain samples with dilution factors of 10^−3, 10^−5, and 10^−7. The assays were performed according to the modified methods of Maron and Ames (Maron D. R. and Ames, B. N. Mutation Research, 1980, Vol. 113, 173-215) using two strains of Salmonella Typhimurium TA-98 and TA-100, with and without metabolic activation of the substrate. The male rat microsomal homogenate S-9 was used to effect metabolic activation of the substrate. TA-98 and TA-100 were cultured in Oxoid Nutrient Broth No.2 at 37° C. for 16 hours using a gyratory shaker (200-250 rpm).
as §1
Background: The Ames test uses bacterial strains that need an amino acid and regain growth without it when mutated back.

“Also recorded” adds a separate entry of the source.

`CC(C)(c1ccc(OCC2CO2)cc1)c1ccc(OCC2CO2)cc1` (stereo not shown) [DGEBA, diglycidyl ether of bisphenol-A]: the “dilution at which a mutagenic response was observed” value in data set [1] (strain TA-100, with S-9 activation) was “greater than 10^−3”. The “dilution at which a mutagenic response was observed” value in data set [1] (strain TA-100, without S-9 activation) is “greater than 10^−5”. Also, in data set [2], the cytotoxicity result is “slightly cytotoxic” and the “mutagenicity (revertant colonies)” value is “no apparent mutagenicity”. Also, the “cytotoxicity and mutagenicity, overall conclusion” value in data set [2] (tester strain TA-98, all concentrations) is reported as “neither cytotoxic nor mutagenic”.
For epoxymethallyl sucrose [EMS], the cytotoxicity result was “borderline cytotoxicity” in data set [1] (Maron-Ames tests, about 10 mg/mL concentration in DMSO, strain not stated); “borderline cytotoxic” in data set [1] (dilution factors of 10^−1); “slightly cytotoxic” in data set [2]. Further, in data set [1] (strain TA-100, dilution factor 10^−1 in DMSO, with or without S-9 activation), the mutagenic response result is “mutagenic response was observed”. For the same molecule, the revertant colonies result in data set [1] (strain TA-100, dilution factor 10^−2) is “had not doubled”. Moreover, the “mutagenicity (revertant colonies)” value in data set [2] was “no apparent mutagenicity; also recorded: no mutagenic response”.
epoxyallyl sucrose [EAS]: the cytotoxicity entry in data set [2] is “slightly cytotoxic”.
epoxycrotyl sucrose [ECS]: the cytotoxicity result in data set [2] is given as “slightly cytotoxic”.
